The values below come from patent US20260015358A1, “BICYCLIC DERIVATIVES, COMPOSITIONS AND USES THEREOF” (Danatlas Pharmaceuticals Co., Ltd., priority 2023, published 2026).

Experiment [1] concerns the target T1, WRN [UniPro: Q14191 (WRN_HUMAN), N500-C946] (Homo sapiens (Human), UniProt Q14191). Description: WRN ATPase assay (ADP-Glo). It is filed as biochemical. The note with it: WRN enzymatic activity assay.
Experiment [2] addresses T1, WRN [UniPro: Q14191 (WRN_HUMAN), N500-C946]. Description: WRN unwinding assay (FORKF DNA, fluorescence). It is filed as biochemical. The note with it: Table 14.

T1 sequence (Q14191 500-946): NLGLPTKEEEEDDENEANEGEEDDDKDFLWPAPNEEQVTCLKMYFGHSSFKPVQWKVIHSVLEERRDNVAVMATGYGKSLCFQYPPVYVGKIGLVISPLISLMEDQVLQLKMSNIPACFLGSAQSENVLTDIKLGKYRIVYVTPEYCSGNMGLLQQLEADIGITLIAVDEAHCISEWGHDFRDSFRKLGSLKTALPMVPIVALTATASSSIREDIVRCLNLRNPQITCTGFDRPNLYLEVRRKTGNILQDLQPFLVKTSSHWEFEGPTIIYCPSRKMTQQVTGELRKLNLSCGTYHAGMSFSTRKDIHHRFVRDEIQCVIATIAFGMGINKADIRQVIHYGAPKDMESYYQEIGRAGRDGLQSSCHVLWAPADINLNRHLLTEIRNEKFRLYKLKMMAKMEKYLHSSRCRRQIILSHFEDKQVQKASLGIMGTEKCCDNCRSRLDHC

With `CCc1c(N2CCN(C(=O)CNC(=O)c3cccc(NC)c3F)CC2)c(=O)n2nc(C3=CCOCC3)nc2n1CC(=O)Nc1ccc(C(F)(F)F)cc1Cl` [Example 287, N-(2-(4-(4-(2-((2-Chloro-4-(trifluoromethyl)phenyl)amino)-2-oxoethyl)-2-(3,6-dihydro-2H-pyran-4-yl)-5-ethyl-7-oxo-4,7-dihydro-[1,2,4]triazolo[1,5-a]pyrimidin-6-yl)piperazin-1-yl)-2-oxoethyl)-2-fluoro-3-(methylamino)benzamide], the concentration for half-maximal inhibition (IC50) in experiment [1] and in experiment [2] was less than 100 nM throughout.

In the case of `CCc1c(N2CCN(C(=O)CNC(=O)c3cccc(N)c3)CC2)c(=O)n2nc(C3=CCOCC3)nc2n1CC(=O)Nc1ccc(C(F)(F)F)cc1Cl` [Example 288, 3-Amino-N-(2-(4-(4-(2-((2-chloro-4-(trifluoromethyl)phenyl)amino)-2-oxoethyl)-2-(3,6-dihydro-2H-pyran-4-yl)-5-ethyl-7-oxo-4,7-dihydro-[1,2,4]triazolo[1,5-a]pyrimidin-6-yl)piperazin-1-yl)-2-oxoethyl)benzamide], the half-inhibitory concentration (IC50) in experiment [1] and in experiment [2] was less than 100 nM in each case.

As for `CCc1c(N2CCN(C(=O)CNC(=O)c3cc(NC)ccc3F)CC2)c(=O)n2nc(C3=CCOCC3)nc2n1CC(=O)Nc1ccc(C(F)(F)F)cc1Cl` [Example 289, N-(2-(4-(4-(2-((2-Chloro-4-(trifluoromethyl)phenyl)amino)-2-oxoethyl)-2-(3,6-dihydro-2H-pyran-4-yl)-5-ethyl-7-oxo-4,7-dihydro-[1,2,4]triazolo[1,5-a]pyrimidin-6-yl)piperazin-1-yl)-2-oxoethyl)-2-fluoro-5-(methylamino)benzamide], the IC50 in experiment [1] and in experiment [2] was less than 100 nM in each case.

On to `CCc1c(N2CCN(C(=O)CNC(=O)c3cc(O)ccc3F)CC2)c(=O)n2nc(C3=CCOCC3)nc2n1CC(=O)Nc1ccc(C(F)(F)F)cc1Cl` [Example 290, N-(2-(4-(4-(2-((2-Chloro-4-(trifluoromethyl)phenyl)amino)-2-oxoethyl)-2-(3,6-dihydro-2H-pyran-4-yl)-5-ethyl-7-oxo-4,7-dihydro-[1,2,4]triazolo[1,5-a]pyrimidin-6-yl)piperazin-1-yl)-2-oxoethyl)-2-fluoro-5-hydroxybenzamide], for which the IC50 in experiment [1] and in experiment [2] was less than 100 nM in each case.

Consider `CCc1c(N2CCN(C(=O)CNC(=O)c3cc(O)cc(F)c3)CC2)c(=O)n2nc(C3=CCOCC3)nc2n1CC(=O)Nc1ccc(C(F)(F)F)cc1Cl` [Example 291, N-(2-(4-(4-(2-((2-Chloro-4-(trifluoromethyl)phenyl)amino)-2-oxoethyl)-2-(3,6-dihydro-2H-pyran-4-yl)-5-ethyl-7-oxo-4,7-dihydro-[1,2,4]triazolo[1,5-a]pyrimidin-6-yl)piperazin-1-yl)-2-oxoethyl)-3-fluoro-5-hydroxybenzamide], for which the IC50 in experiment [1] and in experiment [2] was less than 100 nM in each case.

For the molecule `CCc1c(N2CCN(C(=O)CNC(=O)c3ccc(F)c(O)c3)CC2)c(=O)n2nc(C3=CCOCC3)nc2n1CC(=O)Nc1ccc(C(F)(F)F)cc1Cl` [Example 292, N-(2-(4-(4-(2-((2-Chloro-4-(trifluoromethyl)phenyl)amino)-2-oxoethyl)-2-(3,6-dihydro-2H-pyran-4-yl)-5-ethyl-7-oxo-4,7-dihydro-[1,2,4]triazolo[1,5-a]pyrimidin-6-yl)piperazin-1-yl)-2-oxoethyl)-4-fluoro-3-hydroxybenzamide], the IC50 in experiment [1] and in experiment [2] was less than 100 nM in each case.

Consider `CCc1c(N2CCN(C(=O)CNC(=O)c3cccc(O)c3F)CC2)c(=O)n2nc(C3=CCOCC3)nc2n1CC(=O)Nc1ccc(C(F)(F)F)cc1Cl` [Example 293, N-(2-(4-(4-(2-((2-Chloro-4-(trifluoromethyl)phenyl)amino)-2-oxoethyl)-2-(3,6-dihydro-2H-pyran-4-yl)-5-ethyl-7-oxo-4,7-dihydro-[1,2,4]triazolo[1,5-a]pyrimidin-6-yl)piperazin-1-yl)-2-oxoethyl)-2-fluoro-3-hydroxybenzamide], for which the IC50 in experiment [1] and in experiment [2] was less than 100 nM throughout.

As for `CCc1c(N2CCN(C(=O)CNC(=O)c3c(O)cc(C)oc3=O)CC2)c(=O)n2nc(C3=CCOCC3)nc2n1CC(=O)Nc1ccc(C(F)(F)F)cc1Cl` [Example 295, N-(2-(4-(4-(2-((2-Chloro-4-(trifluoromethyl)phenyl)amino)-2-oxoethyl)-2-(3,6-dihydro-2H-pyran-4-yl)-5-ethyl-7-oxo-4,7-dihydro-[1,2,4]triazolo[1,5-a]pyrimidin-6-yl)piperazin-1-yl)-2-oxoethyl)-4-hydroxy-6-methyl-2-oxo-2H-pyran-3-carboxamide], the IC50 in experiment [1] is 100 to 1000 nM; in experiment [2] it was more than 1000 nM.

In the case of `CCc1c(N2CCN(C(=O)c3cc4ccnn4cn3)CC2)c(=O)n2nc(C3=CCOCC3)nc2n1CC(=O)Nc1ccc(C(F)(F)F)cc1Cl` [Example 296, N-(2-Chloro-4-(trifluoromethyl)phenyl)-2-(2-(3,6-dihydro-2H-pyran-4-yl)-5-ethyl-7-oxo-6-(4-(pyrazolo[1,5-c]pyrimidine-5-carbonyl)piperazin-1-yl)-[1,2,4]triazolo[1,5-a]pyrimidin-4(7H)-yl)acetamide], the half-maximal inhibitory concentration (IC50) in experiment [1] and in experiment [2] was 100 to 1000 nM each time.

With `CCc1c(N2CCN(C(=O)c3cnc4sc(Br)cc4c3O)CC2)c(=O)n2nc(C3=CCOCC3)nc2n1CC(=O)Nc1ccc(C(F)(F)F)cc1F` [Example 297, 2-(6-(4-(2-Bromo-4-hydroxythieno[2,3-b]pyridine-5-carbonyl)piperazin-1-yl)-2-(3,6-dihydro-2H-pyran-4-yl)-5-ethyl-7-oxo-[1,2,4]triazolo[1,5-a]pyrimidin-4(7H)-yl)-N-(2-fluoro-4-(trifluoromethyl)phenyl)acetamide], the half-inhibitory concentration (IC50) in experiment [1] and in experiment [2] was less than 100 nM in each case.

`CCc1c(N2CCN(C(=O)c3cnn4cccc4c3O)CC2)c(=O)n2nc(C3=CCOCC3)nc2n1CC(=O)Nc1sc(C)cc1C` [Example 298, 2-(2-(3,6-Dihydro-2H-pyran-4-yl)-5-ethyl-6-(4-(4-hydroxypyrrolo[1,2-b]pyridazine-3-carbonyl)piperazin-1-yl)-7-oxo-[1,2,4]triazolo[1,5-a]pyrimidin-4(7H)-yl)-N-(3,5-dimethylthiophen-2-yl)acetamide]: the IC50 in experiment [1] and in experiment [2] was less than 100 nM each time.

As for `CCc1c(N2CCN(C(=O)c3[nH]cnc3F)CC2)c(=O)n2nc(C3=CCOCC3)nc2n1CC(=O)Nc1ccc(C(F)(F)F)cc1Cl` [Example 299, N-(2-Chloro-4-(trifluoromethyl)phenyl)-2-(2-(3,6-dihydro-2H-pyran-4-yl)-5-ethyl-6-(4-(4-fluoro-1H-imidazole-5-carbonyl)piperazin-1-yl)-7-oxo-[1,2,4]triazolo[1,5-a]pyrimidin-4(7H)-yl)acetamide], the IC50 in experiment [1] and in experiment [2] was 100 to 1000 nM each time.

`CCc1c(N2CCN(C(=O)c3[nH]c4ccncc4c3F)CC2)c(=O)n2nc(C3=CCOCC3)nc2n1CC(=O)Nc1ccc(C(F)(F)F)cc1Cl` [Example 300, N-(2-Chloro-4-(trifluoromethyl)phenyl)-2-(2-(3,6-dihydro-2H-pyran-4-yl)-5-ethyl-6-(4-(3-fluoro-1H-pyrrolo[3,2-c]pyridine-2-carbonyl)piperazin-1-yl)-7-oxo-[1,2,4]triazolo[1,5-a]pyrimidin-4(7H)-yl)acetamide]: the IC50 in experiment [1] and in experiment [2] was 100 to 1000 nM in each case.

Turning to `CCc1c(N2CCN(C(=O)CNC(=O)c3nc(C)co3)CC2)c(=O)n2nc(C3=CCOCC3)nc2n1CC(=O)Nc1ccc(C(F)(F)F)cc1Cl` [Example 301, N-(2-(4-(4-(2-((2-Chloro-4-(trifluoromethyl)phenyl)amino)-2-oxoethyl)-2-(3,6-dihydro-2H-pyran-4-yl)-5-ethyl-7-oxo-4,7-dihydro-[1,2,4]triazolo[1,5-a]pyrimidin-6-yl)piperazin-1-yl)-2-oxoethyl)-4-methyloxazole-2-carboxamide], the IC50 in experiment [1] and in experiment [2] was 100 to 1000 nM throughout.

For `CCc1c(N2CCN(C(=O)c3cnn4ccc(C)c4c3O)CC2)c(=O)n2nc(C3=CCOCC3)nc2n1CC(=O)Nc1ccc(C(F)(F)F)cc1Cl` [Example 303, N-(2-Chloro-4-(trifluoromethyl)phenyl)-2-(2-(3,6-dihydro-2H-pyran-4-yl)-5-ethyl-6-(4-(4-hydroxy-5-methylpyrrolo[1,2-b]pyridazine-3-carbonyl)piperazin-1-yl)-7-oxo-[1,2,4]triazolo[1,5-a]pyrimidin-4(7H)-yl)acetamide], the IC50 in experiment [1] and in experiment [2] was less than 100 nM throughout.

For the molecule `CCc1c(N2CCN(C(=O)c3c(O)nn4ccccc34)CC2)c(=O)n2nc(C3=CCOCC3)nc2n1CC(=O)Nc1ccc(C(F)(F)F)cc1Cl` [Example 304, N-(2-Chloro-4-(trifluoromethyl)phenyl)-2-(2-(3,6-dihydro-2H-pyran-4-yl)-5-ethyl-6-(4-(2-hydroxypyrazolo[1,5-a]pyridine-3-carbonyl)piperazin-1-yl)-7-oxo-[1,2,4]triazolo[1,5-a]pyrimidin-4(7H)-yl) acetamide], the IC50 in experiment [1] and in experiment [2] was less than 100 nM each time.

With `CCc1c(N2CCN(C(=O)c3nc4ccsc4cc3O)CC2)c(=O)n2nc(C3=CCOCC3)nc2n1CC(=O)Nc1ccc(C(F)(F)F)cc1Cl` [Example 305, N-(2-Chloro-4-(trifluoromethyl)phenyl)-2-(2-(3,6-dihydro-2H-pyran-4-yl)-5-ethyl-6-(4-(6-hydroxythieno[3,2-b]pyridine-5-carbonyl)piperazin-1-yl)-7-oxo-[1,2,4]triazolo[1,5-a]pyrimidin-4(7H)-yl)acetamide], the IC50 in experiment [1] and in experiment [2] was less than 100 nM throughout.

Regarding `CCc1c(N2CCN(C(=O)c3nc4ccccc4cc3O)CC2)c(=O)n2nc(C3=CCOCC3)nc2n1CC(=O)Nc1ccc(C(F)(F)F)cc1Cl` [Example 306, N-(2-Chloro-4-(trifluoromethyl)phenyl)-2-(2-(3,6-dihydro-2H-pyran-4-yl)-5-ethyl-6-(4-(3-hydroxyquinoline-2-carbonyl)piperazin-1-yl)-7-oxo-[1,2,4]triazolo[1,5-a]pyrimidin-4(7H)-yl)acetamide], the IC50 in experiment [1] and in experiment [2] was less than 100 nM in each case.
